Measured values as given in patent US11179722B2, “Microfluidic method for handling microdrops” (ECOLE POLYTECHNIQUE, priority 2016, dated 2021).

Test system: rat hepatoma, H4IIEC3 cells
Type: cell-based
Procedure: An experiment was conducted to determine, in a single microfluidic system, the concentration beyond which a medicinal product (acetaminophen) becomes toxic to liver cells (rat hepatoma, H4IIEC3 cells).
The microfluidic chamber used containing 252 identical traps on 2 cm^2 in FIGS. 5A and 5B.
The first microdrops 20 of agarose that is liquid at 37° C. (ultra-low gelling), at 0.9 wt % diluted in culture medium containing H4IIEC3 cells, were trapped in the first trapping zones 15, the second trapping zone 18 remaining free. The first microdrops 20 were then cultured for one day to allow the cells to adhere to one another to form a spheroid by first microdrops 20. […]
By taking a fluorescence image before fusion, the different levels of fluorescence that are correlated with the concentration of medicinal product in the second microdrops 25 could be identified. […]
The chamber was perfused with HFE-7500 (fluorinated oil) containing 1H,1H,2H,2H-perfluorooctan-1-ol at a concentration of 20 vol % in order to fuse the microdrops in contact. […] By taking an image of the final matrix, the spheroids whose viability was affected most could be determined. […] Thus, correlating the result for viability and the concentration of acetaminophen in the second microdrops, it could be determined that the range of toxicity of acetaminophen on these hepatic cells is between 10 and 30 mmol/L for a static exposure of 1 day.

CC(=O)Nc1ccc(O)cc1 [acetaminophen]
cell survival as a function of acetaminophen concentration: the higher the concentration of acetaminophen, the fewer cells survive | range of toxicity of acetaminophen on these hepatic cells (rat, 1 day): 10 and 30
